In patent US20210186934A1, “COMPOSITIONS AND USES THEREOF” (LIVERPOOL JOHN MOORES UNIVERSITY, priority 2018, published 2021):

Tests used:
Type in all cases: cell-based, human
[1] = system: miR-184; experiment: Induction of miR-184 in HPEK by differentiation agents (sqRT-PCR); conditions: 1 or 5 days
Method: FIG. 1: Induction of miR-184 during Ca^2+-dependent HPEK differentiation. […] Data shown represent means +SEM from 3 independent experiments. Expression was normalized to SNORD72 for miR-184 and GAPDH for IVL. Values are presented relative to 0.07 mM Ca^2+ or DMSO-treated controls;
Human progenitor epidermal keratinocytes (HPEK) were isolated from human foreskin or purchased from CellnTec (Bern, Switzerland). For isolation, tissues were washed with phosphate-buffered saline, trimmed of any subcutaneous fat, connective tissues and blood vessels before digestion with 20 mg/ml dispase (Sigma) at 4° C. overnight with further digestion for 1 hour at room temperature. Thereafter, the epidermis was separated and incubated in 0.5% TrpLE (Thermofisher scientific, Cheshire, UK) for 5 min at 37° C., 5% CO2. Keratinocytes were centrifuged (1200 rpm for 5 min) and re-suspended in CnT-Prime (CellnTec) supplemented with 1% penicillin/streptomycin/amphotericin B (PSA) and IsoBoost supplement CnT-ISO (CellnTec) to enhance isolation efficiency. Culture medium was changed every 2-3 days until cells reached 80% confluence with PSA exclusion from the culture medium after the first passage. Keratinocytes were sub-cultured using CnT-Accutase (CellnTec) and re-cultured at 4×10^3 cells per cm^2. For differentiation, keratinocytes were at 3×10^5/well of a 6-well plate in CnT-Prime and allowed to reach confluence before adjusting the medium to 1.5 mM calcium using CaCl2.
(§1) Total RNA was isolated from cells using the AllPrep DNA/RNA/miRNA Universal kit (Qiagen, Manchester, UK). RNA concentration was determined using a NanoDrop™ 2000c. Complementary DNA (cDNA) was synthesised from 400 ng of RNA using the miScript II RT kit (Qiagen) with HiFlex buffer. PCR amplifications were performed with Quantifast SYBR Green and QuantiTect miRNA/universal primers or RT^2 mRNA primer assays, all from Qiagen. Thermocycling was performed on a Rotor-Gene® as follows: 95° C. for 15 min, followed by 40 cycles of 94° C. for 15 s, 55° C. for 30 s and 70° C. for 30 s. Relative expression of miRNA and mRNA determined using the 2^−ΔΔCT relative quantification method (Livak and Schmittgen, 2001).
(§2) Expression of miR-184 in HPEK was evaluated and maintained in parallel cultures under low (0.07 mM) to sustain proliferation or high (1.5 mM) extracellular Ca^2+ to promote differentiation.

[2] = system: involucrin (IVL); experiment: IVL expression in HPEK treated with differentiation agents (sqRT-PCR); conditions: 100 nM, 5 d, normalized to GAPDH
Method: FIG. 1: Induction of miR-184 during Ca^2+-dependent HPEK differentiation. (a) HPEKs grown to confluence were treated with high (1.5 mM) Ca^2+, 100 nM 1,25(OH)D3, 100 nM PMA or dimethyl sulfoxide (DMSO) vehicle for 1 or 5 days (d). (b) Upregulation of the HPEK differentiation marker involucrin (IVL) during 5 d exposure to 1.5 mM Ca^2+, 100 nM 1,25(OH)D3 or 100 nM PMA. Data shown represent means +SEM from 3 independent experiments. Expression was normalized to SNORD72 for miR-184 and GAPDH for IVL. Values are presented relative to 0.07 mM Ca^2+ or DMSO-treated controls;
Human progenitor epidermal keratinocytes (HPEK) were isolated from human foreskin or purchased from CellnTec (Bern, Switzerland). […]
Total RNA was isolated from cells using the AllPrep DNA/RNA/miRNA Universal kit (Qiagen, Manchester, UK). RNA concentration was determined using a NanoDrop™ 2000c. […] PCR amplifications were performed with Quantifast SYBR Green and QuantiTect miRNA/universal primers or RT^2 mRNA primer assays, all from Qiagen. […] Relative expression of miRNA and mRNA determined using the 2^−ΔΔCT relative quantification method (Livak and Schmittgen, 2001).
as §2

[3] = system: ORAI1; experiment: ORAI1 expression in HPEK; conditions: data not shown
Description: To determine whether Ca^2+-dependent induction of miR-184 was associated with SOCE, HPEK were maintained in high Ca^2+ for 5 days in the presence of the SOCE blocker gadolinium (III) Gd^3+ or the pharmacologic ORAI1 inhibitor BTP2. Alternatively, ORAI1 expression was ablated using short-interfering RNA (siRNA) that was transferred into the cells using nucleofection 1 d prior to Ca^2+ elevation.

[4] = system: miR-184; experiment: miR-184 induction in scratched HPEK monolayers; conditions: low Ca2+ (0.07 mM), 5 days
Method: (§3) FIG. 6: Induction of miR-184 in scratched monolayers. Confluent HPEK monolayers were scratched and cells harvested after 5 days in low (0.07 mM) or high (1.5 mM) Ca^2+ media as indicated. The SOCE blockers Gd^3+ and BTP2 and were added 1 h after scratching and refreshed after day 2. (a-d) miR-184 expression normalized to SNORD72. (c-d) LncRNA UCA1 expression normalised to GAPDH; and
Total RNA was isolated from cells using the AllPrep DNA/RNA/miRNA Universal kit (Qiagen, Manchester, UK). RNA concentration was determined using a NanoDrop™ 2000c. Complementary DNA (cDNA) was synthesised from 400 ng of RNA using the miScript II RT kit (Qiagen) with HiFlex buffer. PCR amplifications were performed with Quantifast SYBR Green and QuantiTect miRNA/universal primers or RT^2 mRNA primer assays, all from Qiagen. […] Relative expression of miRNA and mRNA determined using the 2^−ΔΔCT relative quantification method (Livak and Schmittgen, 2001).
The inventors maintained the HPEK in low Ca^2+ (0.07 mM) medium and allowed them to approach confluence in 6-well plates prior to wounding. Cells were harvested 5 days later and miR-184 expression assessed as described above. […] In contrast, when extracellular Ca^2+ was raised to 1.5 mM to 5 days to evoke HPEK differentiation, only a relatively modest 10-fold rise in miR-184 expression was detected (FIG. 6d). […]

[5] = system: UCA1; experiment: LncRNA UCA1 induction in scratched HPEK monolayers; conditions: 5 days
Method: as §3, §1
The long non-coding RNA UCA1 (urothelial carcinoma associated 1) has been identified as a competing endogenous RNA (ceRNA) with four predicted miR-184-binding sites (Zhou et al., 2017). The expression of UCA1 in the HPEK was therefore examined. […]

| Compound | effect on miR-184 expression ([1]; 100 nM, vs DMSO) | IVL expression [2] | effect on ORAI1 expression [3] | effect on scratch-evoked induction of miR-184 [4] | reduction of UCA1 induction [5] | further results |
| --- | --- | --- | --- | --- | --- | --- |
| C=C1/C(=C\C=C2/CCC[C@]3(C)[C@@H]([C@H](C)CCCC(C)(C)O)CC[C@@H]23)C[C@@H](O)C[C@@H]1O [1, 25-(OH)2D3, 1, 25-dihydroxyvitamin D3] | did not promote miR-184 expression | evoked robust IVL expression |  |  |  | effect on miR-184 expression ([1]; 100 nM, vs DMSO, listed as 1, 25-dihydroxyvitamin D3): neither phorbol ester nor 1, 25-dihydroxyvitamin D3 had any effect |
| Cc1nnsc1C(=O)Nc1ccc(-n2nc(C(F)(F)F)cc2C(F)(F)F)cc1 [BTP2] |  |  | little effect on ORAI1 expression | abolished the induction of miR-184 | around 50% |  |
| [Cl][Gd]([Cl])[Cl] [Gd^3+, Gadolinium(III) chloride] |  |  | little effect on ORAI1 expression | abolished the induction of miR-184 | around 50% |  |
| CCCCCCCCCCCCCC(=O)O[C@@H]1[C@@H](C)[C@@]2(O)[C@@H](C=C(CO)C[C@]3(O)C(=O)C(C)=C[C@@H]23)[C@@H]2C(C)(C)[C@]12OC(C)=O [PMA, phorbol 12-myristate 13-acetate] | did not promote miR-184 expression | evoked robust IVL expression |  |  |  | effect on miR-184 expression ([1]; 100 nM, vs DMSO, listed as phorbol ester): neither phorbol ester nor 1, 25-dihydroxyvitamin D3 had any effect |
| IFNγ: Interferon gamma, reported to trigger keratinocyte differentiation |  |  |  |  |  | effect on miR-184 expression ([1]; 10 ng/ml, data not shown): no induction of miR-184 was observed |
